≈ marks a conversion by molar mass, not a printed value.
Experiment: aqueous solubility
Assay type: physicochemical

aqueous solubility: 100 µg/mL (≈ 172 µM)
Compound: COc1ccc(C2=N[C@@H](c3ccc(Cl)cc3)[C@@H](c3ccc(Cl)cc3)N2C(=O)N2CCNC(=O)C2)c(OC(C)C)c1 [Nutlin-3a, nutlin-3a]
